Assay results taken from ChEMBL document CHEMBL3351528, “Targeting dopamine D3 and serotonin 5-HT1A and 5-HT2A receptors for developing effective antipsychotics: synthesis, biological characterization, and behavioral studies” (J Med Chem, 2014).
Calls of active or inactive are those of the source. The rule behind the calls is not given here.

Assays:
[1] = target: D(2) dopamine receptor (Homo sapiens, UniProt P14416)
Description: Binding affinity to dopamine D2 receptor (unknown origin)

[2] = target: 5-hydroxytryptamine receptor 2A (Homo sapiens, UniProt P28223)
Description: Binding affinity to 5HT2A receptor (unknown origin)

[3] = tested on: Mus musculus; assay: Antipsychotic-like activity in sc dosed NMRI mouse assessed as reduction in MK801-induced locomotor activity dosed 15 to 30 mins before administration of MK801 measured for 60 mins; assay type: functional; details: read-out: MED
[4] = tested on: Mus musculus; assay: Toxicity in NMRI mouse assessed as induction of catalepsy at 30 mg/kg, sc dosed 30 mins before test; assay type: organism-based; parameters: dose 30 mg/kg, route subcutaneous; details: in vivo, 0.5 h
[5] = target: D(3) dopamine receptor (Homo sapiens, UniProt P35462)
Chain of D(3) dopamine receptor (P35462 whole entry): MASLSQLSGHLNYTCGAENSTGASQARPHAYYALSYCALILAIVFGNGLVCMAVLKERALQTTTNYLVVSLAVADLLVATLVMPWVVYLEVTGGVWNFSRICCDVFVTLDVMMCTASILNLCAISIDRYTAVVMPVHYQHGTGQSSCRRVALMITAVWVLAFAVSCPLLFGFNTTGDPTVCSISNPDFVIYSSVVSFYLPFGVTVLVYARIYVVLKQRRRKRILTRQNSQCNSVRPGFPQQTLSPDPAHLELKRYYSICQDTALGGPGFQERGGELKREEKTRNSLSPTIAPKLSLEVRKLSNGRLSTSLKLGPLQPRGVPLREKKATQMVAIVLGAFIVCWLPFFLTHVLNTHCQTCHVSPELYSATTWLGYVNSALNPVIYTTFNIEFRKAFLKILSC
Description: Binding affinity to dopamine D3 receptor (unknown origin)

[6] = target: T1, 5-hydroxytryptamine receptor 1A (Homo sapiens, UniProt P08908)
T1 sequence (P08908 whole entry): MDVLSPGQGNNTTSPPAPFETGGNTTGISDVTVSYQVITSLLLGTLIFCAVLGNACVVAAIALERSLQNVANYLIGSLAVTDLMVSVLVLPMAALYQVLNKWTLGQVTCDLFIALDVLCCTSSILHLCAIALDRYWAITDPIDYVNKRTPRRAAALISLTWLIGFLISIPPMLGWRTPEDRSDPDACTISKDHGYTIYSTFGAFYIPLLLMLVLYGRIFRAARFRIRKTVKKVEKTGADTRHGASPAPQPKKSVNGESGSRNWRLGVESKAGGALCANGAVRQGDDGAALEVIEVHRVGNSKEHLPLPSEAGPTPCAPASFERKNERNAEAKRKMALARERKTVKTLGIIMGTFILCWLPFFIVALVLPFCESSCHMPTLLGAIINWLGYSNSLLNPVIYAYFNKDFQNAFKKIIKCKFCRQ
Description: Binding affinity to 5HT1A receptor (unknown origin)

[7] = target: T2, 5-hydroxytryptamine receptor 2C (Homo sapiens, UniProt P28335)
T2 sequence (P28335 whole entry): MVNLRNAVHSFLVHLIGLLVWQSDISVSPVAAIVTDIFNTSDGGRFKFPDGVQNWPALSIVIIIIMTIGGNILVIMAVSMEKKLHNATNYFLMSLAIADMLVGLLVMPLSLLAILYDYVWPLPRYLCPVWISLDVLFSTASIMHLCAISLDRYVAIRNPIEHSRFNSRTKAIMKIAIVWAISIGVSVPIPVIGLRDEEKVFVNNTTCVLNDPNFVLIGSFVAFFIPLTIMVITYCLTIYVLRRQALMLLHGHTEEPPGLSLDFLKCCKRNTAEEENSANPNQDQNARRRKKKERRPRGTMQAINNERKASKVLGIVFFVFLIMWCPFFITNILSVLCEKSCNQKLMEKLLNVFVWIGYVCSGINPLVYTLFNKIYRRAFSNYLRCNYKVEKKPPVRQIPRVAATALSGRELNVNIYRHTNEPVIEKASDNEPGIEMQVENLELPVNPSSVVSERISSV
Description: Binding affinity to 5HT2C receptor (unknown origin)

[8] = species on record: Mus musculus; details: in vivo, sc, 0.5 h
Description: Effect on spontaneous exploratory locomotor activity in sc dosed NMRI mouse measured for 30 mins with activity counts each 5 mins

[9] = species on record: Mus musculus; assay: animal or person; details: NMRI, sc, read-out: MED
Description: Antipsychotic-like activity in sc dosed NMRI mouse assessed as reduction in methamphetamine-induced locomotor activity dosed 15 to 30 mins before administration of methamphetamine measured for 60 mins

[10] = tested on: Mus musculus; assay: Toxicity in NMRI mouse assessed as induction of sedation at 10 and 30 mg/kg, sc dosed 30 mins before test; assay type: organism-based; parameters: dose 30 mg/kg, route subcutaneous; details: in vivo, 0.5 h
[11] = species on record: Mus musculus; assay: animal or person; details: NMRI, sc, read-out: MED; remark: listed apart in the source
Description: Antipsychotic-like activity in sc dosed NMRI mouse assessed as reduction in PCP-induced locomotor activity dosed 15 to 30 mins before administration of methamphetamine measured for 60 mins

[12] = tested on: Mus musculus; assay: Anxiolytic activity in mouse at 10 mg/kg, ip dosed 30 mins before test by marble burying method; assay type: functional, organism-based; parameters: dose 10 mg/kg
[13] = tested on: Mus musculus; assay: Effect on spontaneous locomotor activity in mouse at 10 mg/kg, ip; assay type: ADME, organism-based; parameters: dose 10 mg/kg, route intraperitoneal; details: in vivo

Chain of D(2) dopamine receptor (P14416 whole entry): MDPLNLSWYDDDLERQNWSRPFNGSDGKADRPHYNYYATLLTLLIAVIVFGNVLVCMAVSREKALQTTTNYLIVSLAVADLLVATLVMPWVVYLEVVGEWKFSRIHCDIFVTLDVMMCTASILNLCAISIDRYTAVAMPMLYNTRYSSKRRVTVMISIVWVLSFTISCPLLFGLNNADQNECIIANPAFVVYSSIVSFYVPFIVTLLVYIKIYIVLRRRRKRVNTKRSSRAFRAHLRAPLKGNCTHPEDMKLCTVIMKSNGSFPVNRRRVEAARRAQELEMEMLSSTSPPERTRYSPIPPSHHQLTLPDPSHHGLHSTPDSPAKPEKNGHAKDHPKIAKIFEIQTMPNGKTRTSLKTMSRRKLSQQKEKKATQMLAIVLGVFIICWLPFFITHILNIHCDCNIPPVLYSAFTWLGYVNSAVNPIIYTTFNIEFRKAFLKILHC
Chain of 5-hydroxytryptamine receptor 2A (P28223 whole entry): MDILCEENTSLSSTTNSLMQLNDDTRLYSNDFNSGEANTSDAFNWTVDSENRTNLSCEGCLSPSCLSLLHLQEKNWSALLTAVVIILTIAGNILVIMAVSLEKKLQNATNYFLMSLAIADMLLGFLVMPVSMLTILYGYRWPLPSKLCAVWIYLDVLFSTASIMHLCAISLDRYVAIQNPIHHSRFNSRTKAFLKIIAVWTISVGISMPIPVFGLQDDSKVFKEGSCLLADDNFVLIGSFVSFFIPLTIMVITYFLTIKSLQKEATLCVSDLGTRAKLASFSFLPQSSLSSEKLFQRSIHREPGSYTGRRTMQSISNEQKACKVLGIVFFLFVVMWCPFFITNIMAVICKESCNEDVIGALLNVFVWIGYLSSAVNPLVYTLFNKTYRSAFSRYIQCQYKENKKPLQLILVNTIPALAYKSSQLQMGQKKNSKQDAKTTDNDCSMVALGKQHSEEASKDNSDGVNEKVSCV

| Compound | Ki [1] [µM] | Ki [2] [µM] | minimal effective dose [3] [mg/kg] | Activity [4] | Ki [5] [µM] | Ki [6] [µM] | Ki [7] [µM] | MED [8] | minimal effective dose [9] [mg/kg] | Activity [10] | minimal effective dose [11] [mg/kg] | Activity [12] | Activity [13] |
| --- | --- | --- | --- | --- | --- | --- | --- | --- | --- | --- | --- | --- | --- |
| Cc1cccc(N2CCN(CCCCNC(=O)c3cc4ccccc4cn3)CC2)c1 | 0.286 | 0.015 | 3 | Non-toxic | 0.005 | 0.008 | 0.169 | <= 3 mg kg-1 | ≤ 3 | – | – | – | – |
| COc1cccc(N2CCN(CCCCNC(=O)c3cc4ccccc4cn3)CC2)c1 | > 1 | 0.033 | 10 | – | 0.0094 | 0.0079 | 0.19 | 10 mg/kg | ≤ 1 | Toxic | 10 | – | – |
| CNC1=Nc2ccc(Cl)cc2C(c2ccccc2)=[N+]([O-])C1.Cl [CHLORDIAZEPOXIDE HYDROCHLORIDE] | – | – | – | – | – | – | – | – | – | – | – | Active | Non-toxic |
